“Also recorded” adds a separate entry of the source. Read-outs that look alike come from different tables or passages of the source.
Assays:
[1] = test system: BT549; assay: Cell viability after 72-hour incubation, CellTiter-Glo 2.0; assay type: cell-based; settings: Homo sapiens, read-out: IC50 (μM) BT549
Procedure: (§1) Select tumor lines representative of triple negative breast cancer (MDA-MB-231 and BT549) were identified for testing of efficacy of compounds. Assessment of compound efficacy was determined by a test of cell viability after 72-hour incubation with compound using CellTiter-Glo 2.0 (Promega). […] Selectivity index is defined as the ratio of the calculated IC50 in normal epithelial lines to the calculated IC50 in a cancerous cell line. For CellTiter-Glo cells are plated in a 96-well, opaque, flat-bottomed black plate. Cells are seeded at 5,000 cells per well and allowed to incubate for 6 hours to allow for attachment. Cells are then dosed in a 12-point serial dilution spanning a range of 50 μM to 25 nM. Clofarabine is used as a positive control for all cell lines, and each plate contains media only, and DMSO controls as negatives for each compound tested. Final volume for both cells and compound should be 100 uL. After 72-hour exposure to compound, plates are removed from the incubator and allowed to equilibrate to room temperature for 30 minutes. An equal volume of CellTiter-Glo 2.0 reagent is added to media present in well (100 uL). Plates are then placed onto an orbital shaker and allow to incubate while shaking for 10 to 15 minutes. Raw luminescence readings are obtained. Log transformations of the background subtracted data are analyzed using a 4PL-fit model, and IC50 values are calculated based on the sigmoidal fit of the non-linear regression model.

[2] = test system: MDA-MB-231; assay: as above; assay type: cell-based; settings: Homo sapiens, read-out: IC50 (μM) MDA-MB-231
Procedure: as §1

[3] = Basic dose escalation test for tolerance of drug concentration; assay type: in vivo; settings: dose escalation 25, 40, 55 mg/kg, Q1D×5 with 2-day washout, B6C3F1/N female mice, FIG. 2
Procedure: Briefly, a cohort of B6C3F1/N female mice were split into three dosing arms: Control (N=2), Clofarabine (N=3), and compound 5 (N=3). The dosing schedule was set based on previous and historical dosing with nucleosides, Q1D×5 with a 2-day washout period before dose escalation. The selected dose concentrations were 25 mg/kg, 40 mg/kg, and 55 mg/kg. Blood was collected weekly by submandibular bleed for ALT and AST measurements, and at necropsy major organs were examined for gross toxicity.

[4] = test system: MDA-MB-231 cells; assay: In vivo efficacy in a solid tumor, triple negative breast cancer model; settings: 25 mg/kg intraperitoneal for 2 weeks, s.c. MDA-MB-231 tumors in athymic nude mice, FIG. 1
Procedure: Athymic nude mice (Crl:Nu(NCr)-Fox^1nu; Charles River) were injected s.c. in the right flank with 100 uL MDA-MB-231 cells in 1:1 RPMI 1640 and Cultrex BME Type 3 (1×10^6 cells/mouse). Tumors were allowed to grow until 500 mm^3 (Tumor Volume= […]×Length×Width^2), at which point mice were dosed […] for 2 weeks by intraperitoneal injection with either vehicle (N-Methyl-2-Pyrrolidone (NMP), Polyethylene glycol 400 (PEG400), and saline at a ratio of 1:2:2 v/v/v), 25 mg/kg of Clofarabine, or 25 mg/kg of compound 5. Tumor volumes were measured twice weekly, and bodyweight was measured daily during the dosing period. This was a pilot test to determine anti-tumor growth activity, so regrowth was not measured and the study was terminated two days after the final dose.

[5] = BT-549, BT549 triple negative breast cancer cells, 72-hour exposure, CellTiter-Glo 2.0, 50 μM to 25 nM
[6] = MDA-MB-231 triple negative breast cancer cells, 72-hour exposure, CellTiter-Glo 2.0, 50 μM to 25 nM

Row | IC50 [1, 5] [µM] | IC50 [2, 6] [µM] | Compound | other results
1 |  | 20.5 | CC(C)Nc1nc(C(F)(F)F)nc2c1ncn2[C@@H]1O[C@H](CO)[C@@H](O)[C@@H]1F [Compound 7a, (2R,3R,4S,5R)-4-fluoro-2-(hydroxymethyl)-5-(6-(isopropylamino)-2-(trifluoromethyl)purin-9-yl)tetrahydrofuran-3-ol] | 
2 | > 50 | ≥ 67 | CCC(CC)Nc1nc(C(F)(F)F)nc2c1ncn2[C@@H]1O[C@H](CO)[C@@H](O)[C@@H]1F [Compound 7b, (2R,3R,4S,5R)-5-[6-(1-ethylpropylamino)-2-(trifluoromethyl)purin-9-yl]-4-fluoro-2-(hydroxymethyl)tetrahydrofuran-3-ol] | 
3 |  | 2.58 | OC[C@H]1O[C@@H](n2cnc3c(NC4CC4)nc(C(F)(F)F)nc32)[C@@H](F)[C@@H]1O [Compound 7c, (2R,3R,4S,5R)-5-[6-(cyclopropylamino)-2-(trifluoromethyl)purin-9-yl]-4-fluoro-2-(hydroxymethyl)tetrahydrofuran-3-ol] | 
4 | 15.1 | 20.5 | CC(Nc1nc(C(F)(F)F)nc2c1ncn2[C@@H]1O[C@H](CO)[C@@H](O)[C@@H]1F)C1CC1 (stereo partly drawn) [Compound 7d, (2R,3R,4S,5R)-5-[6-(1-cyclopropylethylamino)-2-(trifluoromethyl)purin-9-yl]-4-fluoro-2-(hydroxymethyl)tetrahydrofuran-3-ol] | 
5 | 13.8 |  | OC[C@H]1O[C@@H](n2cnc3c(NC4CCC4)nc(C(F)(F)F)nc32)[C@@H](F)[C@@H]1O [Compound 7e, (2R,3R,4S,5R)-5-[6-(cyclobutylamino)-2-(trifluoromethyl)purin-9-yl]-4-fluoro-2-(hydroxymethyl)tetrahydrofuran-3-ol] | 
6 | 13.5 | > 50 | CC1(Nc2nc(C(F)(F)F)nc3c2ncn3[C@@H]2O[C@H](CO)[C@@H](O)[C@@H]2F)CCC1 [Compound 7f, (2R,3R,4S,5R)-4-fluoro-2-(hydroxymethyl)-5-[6-[(1-methylcyclobutyl)amino]-2-(trifluoromethyl)purin-9-yl]tetrahydrofuran-3-ol] | 
7 | 5.89 |  | OC[C@H]1O[C@@H](n2cnc3c(NC4CCCC4)nc(C(F)(F)F)nc32)[C@@H](F)[C@@H]1O [Compound 7g, (2R,3R,4S,5R)-5-[6-(cyclopentylamino)-2-(trifluoromethyl)purin-9-yl]-4-fluoro-2-(hydroxymethyl)tetrahydrofuran-3-ol] | 

Further lines, the compound ahead of its results:

Row | Compound | IC50 [1, 5] [µM] | IC50 [2, 6] [µM] | other results
8 | COC(=O)[C@H](C)NP(=O)(OC[C@H]1O[C@@H](n2cnc3c(N)nc(C(F)(F)F)nc32)C(F)C1O)Oc1ccccc1 (mixture of isomers) [Compound 12, methyl (2S)-2-[[phenoxy-[[rac-(2R,3R,4S,5R)-5-[6-amino-2-(trifluoromethyl)purin-9-yl]-4-fluoro-3-hydroxy-tetrahydrofuran-2-yl]methoxy]phosphoryl]amino]propanoate] |  |  | IC50 ([1]; BT-549, 72 h): 13.1 µM; IC50 ([2]; MDA-MB-231, 72 h): 13.7 µM
9 | Nc1nc(Cl)nc2c1ncn2[C@@H]1O[C@H](CO)[C@@H](O)[C@@H]1F [Clofarabine, 2-chloro-2′-fluoro-2′-deoxy-9-β-D-arabinofuranosyladenine] |  |  | tolerance of drug concentration (toxicity, survival) [3]: Toxicity was seen immediately following the 55 mg/kg dose
10 | Nc1nc(C(F)(F)F)nc2c1ncn2[C@@H]1O[C@H](CO)[C@@H](O)[C@@H]1F [Compound 5, (2R,3R,4S,5R)-5-[6-amino-2-(trifluoromethyl)purin-9-yl]-4-fluoro-2-(hydroxymethyl)tetrahydrofuran-3-ol] | 0.018 | 4.16 | tumor volume / anti-tumor growth activity [4]: effectively reduces tumor volume; also recorded: anti-growth efficacy
11 | CCCCCCCCCCCC(=O)Nc1nc(C(F)(F)F)nc2c1ncn2[C@@H]1O[C@H](CO)[C@@H](O)[C@@H]1F [Compound 10, N-[9-[(2R,3S,4R,5R)-3-fluoro-4-hydroxy-5-(hydroxymethyl)tetrahydrofuran-2-yl]-2-(trifluoromethyl)purin-6-yl]dodecanamide] |  | 3.19 | 
12 | CC(C)C(=O)OC[C@H]1O[C@@H](n2cnc3c(N)nc(C(F)(F)F)nc32)[C@@H](F)[C@@H]1O [Compound 15, [(2R,3R,4S,5R)-5-[6-amino-2-(trifluoromethyl)purin-9-yl]-4-fluoro-3-hydroxy-tetrahydrofuran-2-yl]methyl 2-methylpropanoate] | > 50 | 7.12 | 
13 | CC[C@@H](C)[C@@H](N)C(=O)OC[C@H]1O[C@@H](n2cnc3c(N)nc(C(F)(F)F)nc32)[C@@H](F)[C@@H]1O [Compound 18, [(2R,3R,4S,5R)-5-[6-amino-2-(trifluoromethyl)purin-9-yl]-4-fluoro-3-hydroxy-tetrahydrofuran-2-yl]methyl (2R,3R)-2-amino-3-methyl-pentanoate] | > 50 | 11.4 | 
